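GI50 marks 50% less growth. TGI is the concentration that stops growth completely.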
Assays:
Assay in all cases: NCI anticancer screen, dose series, 384-well format
786-0 renal = system: 786-0 renal
A498 renal = system: A498 renal
ACHN renal = system: ACHN renal
BT-549 breast = system: BT-549 breast
COLO 205 colon = system: COLO 205 colon
HCC-2998 colon = system: HCC-2998 colon
HCT-116 colon = system: HCT-116 colon
HCT-15 colon = system: HCT-15 colon
HL-60(TB) leukemia = system: HL-60(TB) leukemia
HOP-92 NSCLC = system: HOP-92 NSCLC
IGROV1 ovarian = system: IGROV1 ovarian
K-562 leukemia = system: K-562 leukemia
KM12 colon = system: KM12 colon
LOX IMVI melanoma = system: LOX IMVI melanoma
MALME-3M melanoma = system: MALME-3M melanoma
MCF7 breast = system: MCF7 breast
MDA-MB-231 breast = system: MDA-MB-231 breast
MDA-MB-435 melanoma = system: MDA-MB-435 melanoma
MOLT-4 leukemia = system: MOLT-4 leukemia
NCI-H226 lung = system: NCI-H226 lung
NCI-H23 lung = system: NCI-H23 lung
NCI-H322M lung = system: NCI-H322M lung
NCI-H522 lung = system: NCI-H522 lung
NCI/ADR-RES ovarian = system: NCI/ADR-RES ovarian
OVCAR-3 ovarian = system: OVCAR-3 ovarian
OVCAR-4 ovarian = system: OVCAR-4 ovarian
OVCAR-5 ovarian = system: OVCAR-5 ovarian
OVCAR-8 ovarian = system: OVCAR-8 ovarian
RPMI-8226 leukemia = system: RPMI-8226 leukemia
RXF 393 renal = system: RXF 393 renal
SF-268 CNS = system: SF-268 CNS
SF-295 CNS = system: SF-295 CNS
SF-539 CNS = system: SF-539 CNS
SK-MEL-2 melanoma = system: SK-MEL-2 melanoma
SK-MEL-28 melanoma = system: SK-MEL-28 melanoma
SK-MEL-5 melanoma = system: SK-MEL-5 melanoma
SK-OV-3 ovarian = system: SK-OV-3 ovarian
SN12C renal = system: SN12C renal
SNB-19 CNS = system: SNB-19 CNS
SNB-75 CNS = system: SNB-75 CNS
SR leukemia = system: SR leukemia
T-47D breast = system: T-47D breast
TK-10 renal = system: TK-10 renal
U251 glioblastoma = system: U251 glioblastoma
UACC-257 melanoma = system: UACC-257 melanoma
UACC-62 melanoma = system: UACC-62 melanoma
UO-31 renal = system: UO-31 renal

N#Cc1c(N)nc(N)nc1N[C@H](c1nc2c(F)ccc(Cl)c2c(=O)n1-c1cccnc1)C1CC1
GI50 ([…]-0 renal): 3.51 µM | TGI (786-0 renal): 24.4 µM | GI50 (A498 renal): 0.445 µM | TGI (A498 renal): 3.11 µM | GI50 (ACHN renal): 7.04 µM | TGI (ACHN renal): > 100 µM | GI50 (BT-549 breast): 0.711 µM | TGI (BT-549 breast): 12.9 µM | GI50 (COLO 205 colon): 19.8 µM | TGI (COLO 205 colon): > 91.6 µM | GI50 (HCC-2998 colon): 11 µM | TGI (HCC-2998 colon): 24.5 µM | GI50 (HCT-116 colon): 16.1 µM | TGI (HCT-116 colon): 35.9 µM | GI50 (HCT-15 colon): 16.1 µM | TGI (HCT-15 colon): 44.9 µM | GI50 (HL-60(TB) leukemia): 1.13 µM | TGI (HL-60(TB) leukemia): 7.85 µM | GI50 (HOP-92 NSCLC): 0.677 µM | TGI (HOP-92 NSCLC): 14.3 µM | GI50 (IGROV1 ovarian): 1.64 µM | TGI (IGROV1 ovarian): 4.18 µM | GI50 (K-562 leukemia): 17.8 µM | TGI (K-562 leukemia): 38.1 µM | GI50 (KM12 colon): 17.8 µM | TGI (KM12 colon): 52.3 µM | GI50 (LOX IMVI melanoma): 5.13 µM | TGI (LOX IMVI melanoma): 18.6 µM | GI50 (MALME-3M melanoma): > 39.9 µM | TGI (MALME-3M melanoma): > 100 µM | GI50 (MCF7 breast): 2.73 µM | TGI (MCF7 breast): > 100 µM | GI50 (MDA-MB-231 breast): 9.59 µM | TGI (MDA-MB-231 breast): 34.2 µM | GI50 (MDA-MB-435 melanoma): 35.4 µM | TGI (MDA-MB-435 melanoma): > 100 µM | GI50 (MOLT-4 leukemia): 1.54 µM | TGI (MOLT-4 leukemia): 3.94 µM | GI50 (NCI-H226 lung): 15.6 µM | TGI (NCI-H226 lung): > 57.7 µM | GI50 (NCI-H23 lung): 15.3 µM | TGI (NCI-H23 lung): 54.8 µM | GI50 (NCI-H322M lung): 14.9 µM | TGI (NCI-H322M lung): > 80.1 µM | GI50 (NCI-H522 lung): 16.9 µM | TGI (NCI-H522 lung): 48.5 µM | GI50 (NCI/ADR-RES ovarian): 34.2 µM | TGI (NCI/ADR-RES ovarian): > 100 µM | GI50 (OVCAR-3 ovarian): 0.728 µM | TGI (OVCAR-3 ovarian): 6.73 µM | GI50 (OVCAR-4 ovarian): 10.8 µM | TGI (OVCAR-4 ovarian): 52.7 µM | GI50 (OVCAR-5 ovarian): 9.12 µM | TGI (OVCAR-5 ovarian): 43.1 µM | GI50 (OVCAR-8 ovarian): 13.4 µM | TGI (OVCAR-8 ovarian): 32.7 µM | GI50 (RPMI-8226 leukemia): 3.36 µM | TGI (RPMI-8226 leukemia): 10.3 µM | GI50 (RXF 393 renal): 0.2 µM | TGI (RXF 393 renal): 0.936 µM | GI50 (SF-268 CNS): 13.9 µM | TGI (SF-268 CNS): 51.1 µM | GI50 (SF-295 CNS): 2.37 µM | TGI (SF-295 CNS): 18.4 µM | GI50 (SF-539 CNS): 5.96 µM | TGI (SF-539 CNS): 44.5 µM | GI50 (SK-MEL-2 melanoma): 17.3 µM | TGI (SK-MEL-2 melanoma): 39.3 µM | GI50 (SK-MEL-28 melanoma): 3.88 µM | TGI (SK-MEL-28 melanoma): > 100 µM | GI50 (SK-MEL-5 melanoma): 12.6 µM | TGI (SK-MEL-5 melanoma): 34.3 µM | GI50 (SK-OV-3 ovarian): 4.36 µM | TGI (SK-OV-3 ovarian): 37.5 µM | GI50 (SN12C renal): 4.29 µM | TGI (SN12C renal): > 100 µM | GI50 (SNB-19 CNS): 15 µM | TGI (SNB-19 CNS): 31.8 µM | GI50 (SNB-75 CNS): 0.67 µM | TGI (SNB-75 CNS): 5.1 µM | GI50 (SR leukemia): 10.5 µM | TGI (SR leukemia): 22.5 µM | GI50 (T-47D breast): 1.02 µM | TGI (T-47D breast): 5.99 µM | GI50 (TK-10 renal): 4.55 µM | TGI (TK-10 renal): 29.1 µM | GI50 (U251 glioblastoma): 18.3 µM | TGI (U251 glioblastoma): 61.9 µM | GI50 (UACC-257 melanoma): 19.5 µM | TGI (UACC-257 melanoma): > 100 µM | GI50 (UACC-62 melanoma): 3.23 µM | TGI (UACC-62 melanoma): 58.9 µM | GI50 (UO-31 renal): 2.64 µM | TGI (UO-31 renal): 8.87 µM
